The record followed here is patent US20230159931A1, “TARGETING THE PALMOTYLATION/DEPALMOTYLATION CYCLE TO TREAT INFLAMMATORY DISEASES” (CORNELL UNIVERSITY, priority 2020, published 2023).

Data set [1] in a line: Tolerability of ML349 in mice. It counts as in vivo. Particulars: 50 mg kg^−1, mice. The source says: (§1) The inventors tested whether the pharmacological inhibition of APT2 with ML349 could reduce dextran sulfate sodium (DSS)-induced colitis in mice, an experimental model for IBD.
Data set [2] relates to DSS-induced colitis in mice. The data set is described as follows: DSS-induced mouse colitis model. It is filed as in vivo. As to the method: FIGS. 4A-4I. The STAT3 palmitoylation-depalmitoylation cycle aggravates colitis. (A), (B) Human PBMCs from 26 healthy participants (Ctrl), 24 patients with Crohn's disease (CD; 7 remission stage (rem.) and 17 active stage (act.)) and 10 patients with ulcerative colitis (UC; 1 remission stage and 9 active stage) were extracted. LYPLA2 and ZDHHC7 mRNA levels were analysed using qPCR. The relative p-STAT3 levels were quantified by western blots. c, d, The correlations between IL17A (C) or p-STAT3 (D) and the mRNA levels of the indicated genes in 34 patients with IBD. (E), (F), C57BL/6J mice were treated with 2.5% DSS in drinking water ad libitum and ML349 was intraperitoneally injected daily on the day that DSS treatment started. Body weight changes (E) and TH17 cell levels in the spleen (F) were evaluated. (G), (H), Wild-type and DHHC7-knockout mice were treated with 2.5% DSS in drinking water ad libitum. Body weight changes (G) and TH17 cell levels in the spleen (H) were evaluated. (I), Model of the regulation of STAT3 by the palmitoylation-depalmitoylation cycle. Palmitoylation of STAT3 by DHHC7 promotes the membrane recruitment and phosphorylation of STAT3. APT2 promotes the nuclear translocation of p-STAT3 by selectively depalmitoylating p-STAT3 over STAT3. The palmitoylation-depalmitoylation cycle drives the membrane localization and phosphorylation of STAT3, and the nuclear translocation of p-STAT3. The direction of the cycle is ensured by the preference of APT2 for p-STAT3 over STAT3. Data are expressed as the mean±s.e.m. *P<0.05; **P<0.01.
The mouse protocol 2019-0009 was approved by the Institutional Animal Care and Use Committee (IACUC) at Cornell University. All animals were housed under specific-pathogen-free conditions following the regulations of the IACUC. Mice (6-8 weeks old) were randomized into different groups (8 mice per group, mixed sex) as indicated. Colitis was induced by treating with 3.0% DSS (MP Biomedicals) in their drinking water ad libitum. ML349 solution was intraperitoneally injected into the mice at the indicated doses every other day. All mice were euthanized and the spleens were isolated to detect T cells. The distance from caecum to anus was measured. The colon was fixed in 4% paraformaldehyde for pathological examination. The study was not blinded.
as §1

The mark [3] stands for this setting: DSS treatment followed by ML349 treatment, intraperitoneal.
Where [4] appears, read: pretreatment with ML349 followed by treatment with DSS.

In the case of `COc1ccc(N2CCN(C(=O)c3cc4c(s3)-c3ccccc3S(=O)(=O)C4)CC2)cc1` [ML349], the tolerability result in data set [1] is recorded as “well tolerated”. Moreover, in data set [2] (setting [3]), the colon shortening entry is “significantly attenuated” and the weight loss entry is recorded as “significantly attenuated”. The “levels of TH17 cells in mouse splenocytes” value in data set [2] (DSS-treated mice, spleen) is given as “significantly decreased”. In data set [2] (setting [4]), the survival rate entry is on record as “increased the survival rate” and the weight loss result was “significantly attenuated weight loss”.
